Target: T1, human PAH with the R408W mutation (A375 R408W cells) (Homo sapiens, UniProt P00439, R408W)
T1 construct: expressed in transfected cells
T1 sequence (P00439 1-452 R408W): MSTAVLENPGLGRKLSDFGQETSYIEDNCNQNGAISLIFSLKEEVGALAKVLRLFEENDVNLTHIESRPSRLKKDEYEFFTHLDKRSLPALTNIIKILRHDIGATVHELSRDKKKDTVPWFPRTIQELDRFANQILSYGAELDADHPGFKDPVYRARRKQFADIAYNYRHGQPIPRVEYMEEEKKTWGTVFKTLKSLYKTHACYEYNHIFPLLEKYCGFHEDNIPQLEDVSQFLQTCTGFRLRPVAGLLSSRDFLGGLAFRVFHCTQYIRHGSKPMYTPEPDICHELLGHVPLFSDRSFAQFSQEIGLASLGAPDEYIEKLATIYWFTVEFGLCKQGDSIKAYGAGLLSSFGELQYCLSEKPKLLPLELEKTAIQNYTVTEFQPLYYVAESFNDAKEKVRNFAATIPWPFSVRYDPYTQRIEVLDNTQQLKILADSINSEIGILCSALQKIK
Assay: Cell Based Phenylalanine Flux Assay
Settings: A375 R408W cells; 24 hrs with compound, then 20 μM sepiapterin and 800 μM 13C9,15N-Phenylalanine for 4 hours; 13C-Tyrosine by LC-MS; average where tested multiple times
In short: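 Stable R408W PAH A375 cells: 24 h compound pretreatment in duplicate, then 4 h with 800 μM isotope-labelled Phe and 20 μM sepiapterin. Labelled Tyr output by LC-MS; AC50 averaged where repeated.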

Row | AC50 | SMILES
1 | 1000 to 5000 nM | Cn1ccc(-c2nnc(C(=O)N3CCc4[nH]cnc4[C@@H]3c3nc4cc(F)ccc4o3)o2)n1 [Example 105, (R)-(4-(5-fluorobenzo[d]oxazol-2-yl)-6,7-dihydro-1H-imidazo[4,5-c]pyridin-5(4H)-yl)(5-(1-methyl-1H-pyrazol-3-yl)-1,3,4-oxadiazol-2-yl)methanone]
2 | 1000 to 5000 nM | Cn1ccc(-c2nnc(C(=O)N3CCc4[nH]cnc4[C@H]3c3nc4cc(F)ccc4o3)o2)n1 [Example 106, (S)-(4-(5-fluorobenzo[d]oxazol-2-yl)-6,7-dihydro-1H-imidazo[4,5-c]pyridin-5(4H)-yl)(5-(1-methyl-1H-pyrazol-3-yl)-1,3,4-oxadiazol-2-yl)methanone]
3 | 500 to 1000 nM | Cc1ccc2oc([C@@H]3c4nc[nH]c4CCN3C(=O)c3nnc(-c4cnn(C)c4)o3)nc2c1 [Example 111, (S)-(5-(1-methyl-1H-pyrazol-4-yl)-1,3,4-oxadiazol-2-yl)(4-(5-methylbenzo[d]oxazol-2-yl)-6,7-dihydro-1H-imidazo[4,5-c]pyridin-5(4H)-yl)methanone]
4 | 1000 to 5000 nM | Cc1ccc2oc([C@H]3c4nc[nH]c4CCN3C(=O)c3nnc(-c4cnn(C)c4)o3)nc2c1 [Example 112, (R)-(5-(1-methyl-1H-pyrazol-4-yl)-1,3,4-oxadiazol-2-yl)(4-(5-methylbenzo[d]oxazol-2-yl)-6,7-dihydro-1H-imidazo[4,5-c]pyridin-5(4H)-yl)methanone]
5 | 1000 to 5000 nM | Cn1cc(-c2nnc(C(=O)N3CCc4[nH]cnc4[C@@H]3c3nc4cc(F)ccc4o3)o2)c(C(F)(F)F)n1 [Example 117, (R)-(4-(5-fluorobenzo[d]oxazol-2-yl)-6,7-dihydro-1H-imidazo[4,5-c]pyridin-5(4H)-yl)(5-(1-methyl-3-(trifluoromethyl)-1H-pyrazol-4-yl)-1,3,4-oxadiazol-2-yl)methanone]
6 | ≤ 500 nM | Cn1cc(-c2nnc(C(=O)N3CCc4[nH]cnc4[C@H]3c3nc4cc(F)ccc4o3)o2)c(C(F)(F)F)n1 [Example 118, (S)-(4-(5-fluorobenzo[d]oxazol-2-yl)-6,7-dihydro-1H-imidazo[4,5-c]pyridin-5(4H)-yl)(5-(1-methyl-3-(trifluoromethyl)-1H-pyrazol-4-yl)-1,3,4-oxadiazol-2-yl)methanone]
7 | 500 to 1000 nM | Cc1cnn(C)c1-c1nnc(C(=O)N2CCc3[nH]cnc3[C@H]2c2nc3cc(F)ccc3o2)o1 [Example 119, (S)-(5-(1,4-dimethyl-1H-pyrazol-5-yl)-1,3,4-oxadiazol-2-yl)(4-(5-fluorobenzo[d]oxazol-2-yl)-6,7-dihydro-1H-imidazo[4,5-c]pyridin-5(4H)-yl)methanone]
8 | 1000 to 5000 nM | Cc1cnn(C)c1-c1nnc(C(=O)N2CCc3[nH]cnc3[C@@H]2c2nc3cc(F)ccc3o2)o1 [Example 120, (R)-(5-(1,4-dimethyl-1H-pyrazol-5-yl)-1,3,4-oxadiazol-2-yl)(4-(5-fluorobenzo[d]oxazol-2-yl)-6,7-dihydro-1H-imidazo[4,5-c]pyridin-5(4H)-yl)methanone]

Second part, the compound before the results:

Row | SMILES | AC50
9 | Cc1ccc2nc([C@@H]3c4nc[nH]c4CCN3C(=O)c3nnc(-c4ccccn4)o3)oc2c1 [Example 101, (S)-(4-(6-methylbenzo[d]oxazol-2-yl)-6,7-dihydro-1H-imidazo[4,5-c]pyridin-5(4H)-yl)(5-(pyridin-2-yl)-1,3,4-oxadiazol-2-yl)methanone] | 500 to 1000 nM
10 | Cc1ccc2nc([C@H]3c4nc[nH]c4CCN3C(=O)c3nnc(-c4ccccn4)o3)oc2c1 [Example 102, (R)-(4-(6-methylbenzo[d]oxazol-2-yl)-6,7-dihydro-1H-imidazo[4,5-c]pyridin-5(4H)-yl)(5-(pyridin-2-yl)-1,3,4-oxadiazol-2-yl)methanone] | 1000 to 5000 nM
11 | Cc1ccc2nc([C@@H]3c4nc[nH]c4CCN3C(=O)c3nnc(-c4cnn(C)c4)o3)oc2c1 [Example 103, (S)-(5-(1-methyl-1H-pyrazol-4-yl)-1,3,4-oxadiazol-2-yl)(4-(6-methylbenzo[d]oxazol-2-yl)-6,7-dihydro-1H-imidazo[4,5-c]pyridin-5(4H)-yl)methanone] | 1000 to 5000 nM
12 | Cc1ccc2nc([C@H]3c4nc[nH]c4CCN3C(=O)c3nnc(-c4cnn(C)c4)o3)oc2c1 [Example 104, (R)-(5-(1-methyl-1H-pyrazol-4-yl)-1,3,4-oxadiazol-2-yl)(4-(6-methylbenzo[d]oxazol-2-yl)-6,7-dihydro-1H-imidazo[4,5-c]pyridin-5(4H)-yl)methanone] | ≥ 5000 nM
13 | COCc1nc(C(F)F)c(C(=O)N2CCc3[nH]cnc3[C@@H]2c2nc3cc(F)ccc3o2)o1 [Example 109, (R)-(4-(difluoromethyl)-2-(methoxymethyl)oxazol-5-yl)(4-(5-fluorobenzo[d]oxazol-2-yl)-6,7-dihydro-1H-imidazo[4,5-c]pyridin-5(4H)-yl)methanone] | 1000 to 5000 nM
14 | COCc1nc(C(F)F)c(C(=O)N2CCc3[nH]cnc3[C@H]2c2nc3cc(F)ccc3o2)o1 [Example 110, (S)-(4-(difluoromethyl)-2-(methoxymethyl)oxazol-5-yl)(4-(5-fluorobenzo[d]oxazol-2-yl)-6,7-dihydro-1H-imidazo[4,5-c]pyridin-5(4H)-yl)methanone] | 500 to 1000 nM
15 | O=C(c1nnc(-c2ccn(C(F)F)n2)o1)N1CCc2[nH]cnc2[C@H]1c1nc2cc(F)ccc2o1 [Example 113, (S)-(5-(1-(difluoromethyl)-1H-pyrazol-3-yl)-1,3,4-oxadiazol-2-yl)(4-(5-fluorobenzo[d]oxazol-2-yl)-6,7-dihydro-1H-imidazo[4,5-c]pyridin-5(4H)-yl)methanone] | 1000 to 5000 nM
16 | O=C(c1nnc(-c2ccn(C(F)F)n2)o1)N1CCc2[nH]cnc2[C@@H]1c1nc2cc(F)ccc2o1 [Example 114, (R)-(5-(1-(difluoromethyl)-1H-pyrazol-3-yl)-1,3,4-oxadiazol-2-yl)(4-(5-fluorobenzo[d]oxazol-2-yl)-6,7-dihydro-1H-imidazo[4,5-c]pyridin-5(4H)-yl)methanone] | 1000 to 5000 nM
17 | O=C(c1oc(COC(F)(F)F)nc1C(F)F)N1CCc2[nH]cnc2[C@H]1c1nc2cc(F)ccc2o1 [Example 115, (S)-(4-(difluoromethyl)-2-((trifluoromethoxy)methyl)oxazol-5-yl)(4-(5-fluorobenzo[d]oxazol-2-yl)-6,7-dihydro-1H-imidazo[4,5-c]pyridin-5(4H)-yl)methanone] | 500 to 1000 nM
18 | O=C(c1oc(COC(F)(F)F)nc1C(F)F)N1CCc2[nH]cnc2[C@@H]1c1nc2cc(F)ccc2o1 [Example 116, (R)-(4-(difluoromethyl)-2-((trifluoromethoxy)methyl)oxazol-5-yl)(4-(5-fluorobenzo[d]oxazol-2-yl)-6,7-dihydro-1H-imidazo[4,5-c]pyridin-5(4H)-yl)methanone] | 1000 to 5000 nM
19 | O=C(c1nnc(-c2cc(C(F)(F)F)ccn2)o1)N1CCc2[nH]cnc2[C@@H]1c1nc2cc(F)ccc2o1 [Example 121, [(4R)-4-(5-fluoro-1,3-benzoxazol-2-yl)-1,4,6,7-tetrahydroimidazo[4,5-c]pyridin-5-yl]-[5-[4-(trifluoromethyl)-2-pyridyl]-1,3,4-oxadiazol-2-yl]methanone] | 1000 to 5000 nM
20 | O=C(c1nnc(-c2cc(C(F)(F)F)ccn2)o1)N1CCc2[nH]cnc2[C@H]1c1nc2cc(F)ccc2o1 [Example 122, [(4S)-4-(5-fluoro-1,3-benzoxazol-2-yl)-1,4,6,7-tetrahydroimidazo[4,5-c]pyridin-5-yl]-[5-[4-(trifluoromethyl)-2-pyridyl]-1,3,4-oxadiazol-2-yl]methanone] | ≤ 500 nM
